32 compounds from US12091425B2 (AMGEN INC., priority 2016, dated 2024) can be followed below.

Test [1] has as its system OPM-2 human multiple myeloma cell line. As to the kind of experiment: Cell Viability Assay (OPM-2 10 FBS). The class given is cell-based. To be noted: OPM-2 cells, CellTiter-Glo. Here is the method:
Cell Viability Assay (OPM-2 10 FBS)
Cells were seeded into 384-well plates at 3000 cells/well density in complete growth medium containing 10% FBS, and incubated for 16 h with serially diluted test compounds in a 37° C. incubator with 5% CO2. Cell viability was tested using CellTiter-Glo® assay (Promega, Madison, WI) according to the manufacturer recommendations. Luminescence was determined using an EnVision® Multilabel plate reader 25 min after the addition of detection reagent. IC50 values were then calculated with Xlfit using a logistical 4-parameter fit model in GraphPad Prism (GraphPad Software, San Diego, CA) or in Genedata Screener® (Genedata, Basel, Switzerland).
(In general: Cellular ATP, detected with luciferase, serves as a proxy for viable cell number.)

Test [2] addresses T1, Mcl-1/Bim interaction, recombinant human Mcl-1 (171-327) (Homo sapiens, UniProt Q07820).
T1 construct: made in house
As to the kind of experiment: Cell free Mcl-1: Bim Affinity Assay (Mcl-1 HTRF). The class given is binding. In a few lines: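 Displacement of biotinylated Bim 51-76 peptide is followed by TR-FRET. Incubation runs overnight. Duplicate points are fitted with a four-parameter sigmoid to yield IC50.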
On the technique in general: Time-resolved FRET reads energy transfer from a long-lived donor to a nearby acceptor.

[3] abbreviates: cell free Mcl-1:Bim TR-FRET, recombinant human Mcl-1 (171-327).
Setting [4] is: Homo sapiens, OPM-2, 16 h, 16 h.
Where [5] appears, read: TR-FRET, 0.1 nM Mcl-1 (171-327), 0.05 nM biotin-Bim (51-76).

T1 sequence (Q07820 171-327): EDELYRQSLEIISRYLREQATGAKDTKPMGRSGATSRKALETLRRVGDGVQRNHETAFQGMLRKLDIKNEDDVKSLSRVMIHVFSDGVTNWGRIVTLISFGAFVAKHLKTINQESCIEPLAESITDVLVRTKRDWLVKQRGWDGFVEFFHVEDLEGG

The IC50 is the concentration needed to halve the response being measured. As for `COC(C)COC1C=CCC(C)C(C)S(=O)(=O)NC(=O)c2ccc3c(c2)N(CC2CCC21)CC1(CCCc2cc(Cl)ccc21)CO3` (mixture of isomers) [Example 519], the IC50 in test [1] (16 h) was found to be 339 nM; in test [2] (setting [3]), 1.44 nM.
Taken in the same sequence, the figures for `COCC1COCCN1CCOC1C=CCC(C)C(C)S(=O)(=O)NC(=O)c2ccc3c(c2)N(CC2CCC21)CC1(CCCc2cc(Cl)ccc21)CO3` (mixture of isomers) [Example 530] were 134 nM and 0.763 nM.
With `O=C1NS(=O)(=O)N(CC2CCCO2)C/C=C/[C@H](O)[C@@H]2CC[C@H]2CN2C[C@@]3(CCCc4cc(Cl)ccc43)COc3ccc1cc32` (mixture of isomers) [Example 691], the IC50 in test [1] (setting [4]) turned out to be 2330 nM; in test [2] (setting [3]), 1.81 nM.
Take `COCC(C)OC1C=CCCC(C)S(=O)(=O)NC(=O)c2ccc3c(c2)N(CC2CCC21)CC1(CCCc2cc(Cl)ccc21)CO3` (mixture of isomers) [Example 955]: the IC50 is 567 nM in test [1] (16 h incubation) and 1.23 nM in test [2] (setting [5]).
Taken in the same sequence, the figures for `CCC1CCC=CC(OC(C)C(=O)OC)C2CCC2CN2CC3(CCCc4cc(Cl)ccc43)COc3ccc(cc32)C(=O)NS1(=O)=O` (mixture of isomers) [Example 1004] were 23.6 nM and 0.635 nM.
Taken in the same sequence, the figures for `CCC1CCC=CC(OC(C)C(N)=O)C2CCC2CN2CC3(CCCc4cc(Cl)ccc43)COc3ccc(cc32)C(=O)NS1(=O)=O` (mixture of isomers) [Example 1006] were 11600 nM and 0.81 nM.
Turning to `CO[C@H]1/C=C/CCN(C)S(=O)(=O)NC(=O)c2ccc3c(c2)N(C[C@@H]2CC[C@H]21)C[C@@]1(CCCc2cc(Cl)ccc21)CO3` (single isomer, unassigned) [Example 47], the figures for the IC50 in test [1] (setting [4]) and in test [2] (setting [5]) were 1280 nM and 0.629 nM, respectively.
Taken in the same sequence, the figures for `C[C@H]1C/C=C/[C@H](O)[C@@H]2CC[C@H]2CN2C[C@@]3(CCCc4cc(Cl)ccc43)COc3ccc(cc32)C(=O)NS(=O)(=O)N1C[C@@H]1CCCO1` (single isomer, unassigned) [Example 49] were 444 nM and 0.321 nM.
Taken in the same sequence, the figures for `C[C@H]1C/C=C\[C@H](O)[C@@H]2CC[C@H]2CN2C[C@@]3(CCCc4cc(Cl)ccc43)COc3ccc(cc32)C(=O)NS(=O)(=O)N1C[C@@H]1CCCO1` (single isomer, unassigned) [Example 50] were 2210 nM and 3.62 nM.
Taken in the same sequence, the figures for `C[C@@H]1C/C=C/[C@H](O)[C@@H]2CC[C@H]2CN2C[C@@]3(CCCc4cc(Cl)ccc43)COc3ccc(cc32)C(=O)NS(=O)(=O)N1C[C@@H]1CCCO1` (single isomer, unassigned) [Example 51] were 1830 nM and 5.59 nM.
With `C[C@@H]1C/C=C\[C@H](O)[C@@H]2CC[C@H]2CN2C[C@@]3(CCCc4cc(Cl)ccc43)COc3ccc(cc32)C(=O)NS(=O)(=O)N1C[C@@H]1CCCO1` (single isomer, unassigned) [Example 52], the figures for the IC50 in test [1] (setting [4]) and in test [2] (setting [5]) were 1810 nM and 3.93 nM, respectively.
As to `C[C@H]1C/C=C/[C@H](O)[C@@H]2CC[C@H]2CN2C[C@@]3(CCCc4cc(Cl)ccc43)COc3ccc(cc32)C(=O)NS(=O)(=O)N1C[C@H]1CCCO1` (single isomer, unassigned) [Example 53], the concentration for half-maximal inhibition (IC50) came to 486 nM in test [1] (setting [4]) and 0.79 nM in test [2] (setting [5]).
Taken in the same sequence, the figures for `C[C@H]1C/C=C\[C@H](O)[C@@H]2CC[C@H]2CN2C[C@@]3(CCCc4cc(Cl)ccc43)COc3ccc(cc32)C(=O)NS(=O)(=O)N1C[C@H]1CCCO1` (single isomer, unassigned) [Example 54] were 774 nM and 0.781 nM.
Regarding `C[C@@H]1C/C=C\[C@H](O)[C@@H]2CC[C@H]2CN2C[C@@]3(CCCc4cc(Cl)ccc43)COc3ccc(cc32)C(=O)NS(=O)(=O)N1C[C@H]1CCCO1` (single isomer, unassigned) [Example 56], the figures for the half-inhibitory concentration (IC50) in test [1] (setting [4]) and in test [2] (setting [5]) were 1790 nM and 3.04 nM, respectively.
Taken in the same sequence, the figures for `CCN1[C@@H](C)C/C=C/[C@H](O)[C@@H]2CC[C@H]2CN2C[C@@]3(CCCc4cc(Cl)ccc43)COc3ccc(cc32)C(=O)NS1(=O)=O` (single isomer, unassigned) [Example 57] were 555 nM and 0.491 nM.
Regarding `CCN1C(C)C/C=C\[C@H](O)[C@@H]2CC[C@H]2CN2C[C@@]3(CCCc4cc(Cl)ccc43)COc3ccc(cc32)C(=O)NS1(=O)=O` (single isomer, unassigned) [Example 58], the IC50 is 1180 nM in test [1] (16 h) and 0.994 nM in test [2] (setting [5]).
Taken in the same sequence, the figures for `CCN1[C@H](C)C/C=C\[C@H](O)[C@@H]2CC[C@H]2CN2C[C@@]3(CCCc4cc(Cl)ccc43)COc3ccc(cc32)C(=O)NS1(=O)=O` (single isomer, unassigned) [Example 60] were 2690 nM and 4.08 nM.
`COCCN1[C@@H](C)C/C=C\[C@H](O)[C@@H]2CC[C@H]2CN2C[C@@]3(CCCc4cc(Cl)ccc43)COc3ccc(cc32)C(=O)NS1(=O)=O` (single isomer, unassigned) [Example 63]: the half-maximal inhibitory concentration (IC50) was determined as 810 nM in test [1] (setting [4]) and 0.728 nM in test [2] (setting [5]).
For `COCCO[C@H]1/C=C\C[C@H](C)NS(=O)(=O)NC(=O)c2ccc3c(c2)N(C[C@@H]2CC[C@H]21)C[C@@]1(CCCc2cc(Cl)ccc21)CO3` (single isomer, unassigned) [Example 64], the IC50 in test [1] (setting [4]) was found to be 399 nM; in test [2] (setting [5]), 0.678 nM.
For the compound `COCCO[C@H]1/C=C\C[C@H](C)N(CCOC)S(=O)(=O)NC(=O)c2ccc3c(c2)N(C[C@@H]2CC[C@H]21)C[C@@]1(CCCc2cc(Cl)ccc21)CO3` (single isomer, unassigned) [Example 65], the half-maximal inhibitory concentration (IC50) in test [1] (setting [4]) turned out to be 1170 nM; in test [2] (setting [5]), 2.38 nM.
Consider `COCCO[C@H]1/C=C/C[C@H](C)N(CCOC)S(=O)(=O)NC(=O)c2ccc3c(c2)N(C[C@@H]2CC[C@H]21)C[C@@]1(CCCc2cc(Cl)ccc21)CO3` (single isomer, unassigned) [Example 69], for which the IC50 in test [1] (setting [4]) was 276 nM; in test [2] (setting [5]), 0.529 nM.
As for `COCCCN1[C@@H](C)C/C=C/[C@H](O)[C@@H]2CC[C@H]2CN2C[C@@]3(CCCc4cc(Cl)ccc43)COc3ccc(cc32)C(=O)NS1(=O)=O` (single isomer, unassigned) [Example 72], the IC50 in test [1] (setting [4]) worked out at 445 nM; in test [2] (setting [5]) it was 0.324 nM.
Take `COCCCN1[C@@H](C)C/C=C\[C@H](O)[C@@H]2CC[C@H]2CN2C[C@@]3(CCCc4cc(Cl)ccc43)COc3ccc(cc32)C(=O)NS1(=O)=O` (single isomer, unassigned) [Example 73]: the IC50 in test [1] (setting [4]) worked out at 1660 nM; in test [2] (setting [5]) it was 0.728 nM.
With `COCCCO[C@H]1/C=C/C[C@H](C)NS(=O)(=O)NC(=O)c2ccc3c(c2)N(C[C@@H]2CC[C@H]21)C[C@@]1(CCCc2cc(Cl)ccc21)CO3` (single isomer, unassigned) [Example 74], the results for the concentration for half-maximal inhibition (IC50) in test [1] (setting [4]) and in test [2] (setting [5]) were 381 nM and 1.13 nM, respectively.
For the compound `COCCCO[C@H]1/C=C/C[C@H](C)N(CCCOC)S(=O)(=O)NC(=O)c2ccc3c(c2)N(C[C@@H]2CC[C@H]21)C[C@@]1(CCCc2cc(Cl)ccc21)CO3` (single isomer, unassigned) [Example 75], the IC50 in test [1] (setting [4]) was 875 nM; in test [2] (setting [5]), 1.66 nM.
Taken in the same sequence, the figures for `COc1ccc(CN2[C@@H](C)C/C=C/[C@H](O)[C@@H]3CC[C@H]3CN3C[C@@]4(CCCc5cc(Cl)ccc54)COc4ccc(cc43)C(=O)NS2(=O)=O)cc1` (single isomer, unassigned) [Example 80] were 6530 nM and 8.98 nM.
Regarding `COc1ccc(CN2[C@@H](C)C/C=C\[C@H](O)[C@@H]3CC[C@H]3CN3C[C@@]4(CCCc5cc(Cl)ccc54)COc4ccc(cc43)C(=O)NS2(=O)=O)cc1` (single isomer, unassigned) [Example 81], the IC50 in test [1] (setting [4]) was 6440 nM; in test [2] (setting [5]), 38.5 nM.
Taken in the same sequence, the figures for `O=C1NS(=O)(=O)[C@H]2CC[C@@H]2C/C=C/[C@H](O)[C@@H]2CC[C@H]2CN2C[C@@]3(CCCc4cc(Cl)ccc43)COc3ccc1cc32` (single isomer, unassigned) [Example 90] were 322 nM and 0.44 nM.
`O=C1NS(=O)(=O)[C@H]2CCC[C@H](/C=C/[C@H](O)[C@@H]3CC[C@H]3CN3C[C@@]4(CCCc5cc(Cl)ccc54)COc4ccc1cc43)C2` (single isomer, unassigned) [Example 104]: the concentration for half-maximal inhibition (IC50) in test [1] (16 h) stood at 13000 nM; in test [2] (setting [5]), 40 nM.
Turning to `O=C1NS(=O)(=O)[C@@H]2CCC[C@@H](/C=C/[C@H](O)[C@@H]3CC[C@H]3CN3C[C@@]4(CCCc5cc(Cl)ccc54)COc4ccc1cc43)C2` (single isomer, unassigned) [Example 105], the IC50 in test [1] (16 h) stood at 330 nM; in test [2] (setting [5]) it was 0.589 nM.
Regarding `O=C1NS(=O)(=O)[C@@H]2CCC[C@@H](CC[C@H](O)[C@@H]3CC[C@H]3CN3C[C@@]4(CCCc5cc(Cl)ccc54)COc4ccc1cc43)C2` (single isomer, unassigned) [Example 107], the half-maximal inhibitory concentration (IC50) is 17300 nM in test [1] (16 h) and 0.597 nM in test [2] (setting [5]).
Taken in the same sequence, the figures for `CO[C@H]1/C=C/[C@@H]2CCC[C@H](C2)S(=O)(=O)NC(=O)c2ccc3c(c2)N(C[C@@H]2CC[C@H]21)C[C@@]1(CCCc2cc(Cl)ccc21)CO3` (single isomer, unassigned) [Example 108] were 2250 nM and 1.13 nM.
